# In patent US20170095497A1, “TRANSIENT INHIBITION OF ADENOSINE KINASE AS AN ANTI-EPILE[…]” (Legacy Emanuel Hospital & Health Center, priority 2015, published 2017):
# Assays:
# [1] = tested on: DNA methyltransferase (DNMT); conditions: mice, one hour after administration
# Description: FIGS. 3 and 4 show a pair of bar graphs reporting the level of DNMT activity measured one hour after administration to mice of vehicle alone or with the indicated inhibitor.
# [2] = tested on: kainic acid (KA) triggered epileptogenesis in mice; experiment: EEG seizure recording six weeks after intrahippocampal kainic acid-triggered epileptogenesis, transient ITU treatment; type: in vivo, mouse
# Method: (§1) Kainic acid (KA) was administered intrahippocampally (IH) at day 0 to produce status epilepticus. […] At six weeks and nine weeks, the subjects were analyzed by EEG alone or EEG and histology, respectively.
# The number of subjects from which data were collected is indicated in parentheses above each condition.
# [3] = tested on: kainic acid (KA) triggered epileptogenesis in mice; experiment: Histological analysis of hippocampal tissue sections at nine weeks after KA status epilepticus; type: in vivo, mouse
# Method: as §1
# Administration of saline only is a control (top row of images). […] The tissue sections shown in the first column of images were Nissl stained, and those in the second, third, and fourth columns were stained respectively with antibodies to glial fibrillary acidic protein (GFAP), ADK, and 5-methylcytosine (5mC).
# FIGS. 12-14 are a series of graphs plotting data from the histological analysis represented by FIG. 11. […] FIG. 13 plots the level of GFAP, and FIG. 14 the level of ADK.
# [4] = 1.6 mg/kg ip twice daily, day 3 to day 8 after KA, EEG at six weeks
# [5] = hippocampal sections, nine weeks after KA, transient ITU ip
smiles,measurement,setting,value
"Nc1ncnc2c1c(I)cn2[C@@H]1O[C@H](CO)[C@@H](O)[C@H]1O [ITU, 5-iodotubercidin]",inhibition of DNMT compared with AZA,[1]; ITU 3.1 mg/kg,as effective as AZA
same,DNMT inhibition compared with ADOX and IODO,[1],most effective
same,seizure frequency,[2]; [4],dramatically reduced
same,time spent in seizure,[2]; [4],dramatically reduced
same,frequency of seizures and time spent in seizures,"[2]; 3.1 mg/kg ip once daily, day 3 to day 8 after KA, EEG at six weeks",substantially ineffective
same,"frequency of seizures and time spent in seizures, partial repeat experiment","[2]; ITU twice daily, EEG at six weeks, repeat of FIGS. 6 and 7","confirm the long-term, anti-epileptogenic effect"
same,half-life,"[2]; mice, inferred from once-daily versus twice-daily efficacy",much less than one day
same,dentate granule layer dispersion produced by KA,"[3]; Nissl stained sections, nine weeks, compared to controls",significantly less
same,level of 5-methylcytosine,[3]; [5],reduced
same,level of ADK,[3]; [5],reduced
same,epilepsy-associated histopathology (Nissl),"[3]; nine weeks after KA, transient ITU ip",prevented later development of epilepsy-associated histopathology
